Laboratory results as given in patent US6838436B1, “Inhibitors of proteasomal activity for stimulating bone growth” (Osteoscreen Inc., priority 1998, dated 2005).
Marks after values point to notes of the source that are not given here. Where a SMILES comes first, the peptide text is derived from it. The star is where a group is joined. Cbz = O=C(OCc1ccccc1)*; OtBu = CC(C)(C)O*

What was measured:
[1] = tested on: hair follicles of skin explants; assay: Skin explants from mice during telogen (Example 16); type: cell-based; conditions: 72 hours
Description: In the untreated control explants, the follicles were few and small.

calvaria = assay: Calvarial assay of epoxomicin (Example 7), new bone area; type: cell-based, mouse
Method: An assay for bone resorption or bone formation is similar to that described by Gowen M. & Mundy G., J Immunol (1986) 136:2478-82. Briefly, four days after birth, the front and parietal bones of ICR Swiss white mouse pups are removed by microdissection and split along the sagittal suture. In an assay for resorption, the bones are incubated in BGJb medium (Irvine Scientific, Santa Ana, Calif.) plus 0.02% (or lower concentration) β-methylcyclodextrin, wherein the medium also contains test or control substances. The medium used when the assay is conducted to assess bone formation is Fitton and Jackson Modified BGJ Medium (Sigma) supplemented with 6 μg/ml insulin, 6 μg/ml transferrin, 6 ng/ml selenous acid, calcium and phosphate concentrations of 1.25 and 3.0 mM, respectively, and ascorbic acid to a concentration of 100 μg/ml is added every two days. The incubation is conducted at 37° C. in a humidified atmosphere of 5% CO2 and 95% air for 96 hours.
New bone formation was determined (using a 10× objective) by measuring the new bone area formed in one field in 3 representative sections of each bone (4 bones per group). Each measurement was carried out ½ field distance from the end of the suture. Both total bone and old bone area were measured. Data were expressed as new bone area in μm^2.

calpain = conditions: cited from earlier work
hair follicles = assay: Stimulation of hair growth after wax hair stripping, subcutaneous injection (Example 9); type: in vivo, Male Swiss ICR mice
Method: Male Swiss ICR mice were first treated to remove hair from the scalp and dorsal regions as follows. Paraffin wax was liquefied by heating to 55° C. and the liquefied wax then applied by brush to the scalp and/or back (under anesthesia). The wax was allowed to solidify and then removed. The day following hair stripping, PSI (1 mg/kg/day) was injected subcutaneously three times a day for five days into the scalp and dorsal region. […] The mice were sacrificed on day 21 and histology was performed on the dermis of the scalp and of the dorsal region. […] Upon closer examination, it was observed that mice that had received only vehicle had quiescent hair follicles.

calvaria of normal mice = assay: In vivo assay of effects on murine calvarial bone growth; parameters: species or system ICR Swiss white mice; conditions: for % Increase in Bone Area Compared with Control: p < 0.05; for % Increase in New Bone Width: p < 0.001
Method: Male ICR Swiss white mice, aged 4-6 weeks and weighing 13-26 gm, are employed, using 4-5 mice per group. The calvarial bone growth assay is performed as described in PCT application WO95/24211, incorporated by reference. Briefly, the test compound or appropriate control vehicle is injected into the subcutaneous tissue over the right calvaria of normal mice. Typically, the control vehicle is the vehicle in which the compound was solubilized, and is PBS containing 5% DMSO or is PBS containing Tween (2 μl/10 ml). The animals are sacrificed on day 14 and bone growth measured by histomorphometry. Bone samples for quantitation are cleaned from adjacent tissues and fixed in 10% buffered formalin for 24-48 hours, decalcified in 14% EDTA for 1-3 weeks, processed through graded alcohols; and embedded in paraffin wax. Three to five μm sections of the calvaria are prepared, and representative sections are selected for histomorphometric assessment of the effects on bone formation and bone resorption. Sections are measured by using a camera lucida attachment to trace directly the microscopic image onto a digitizing plate. Bone changes are measured on sections cut 200 μm apart, over 4 adjacent 1×1 mm fields on both the injected and noninjected sides of the calvaria. New bone is identified by its characteristic woven structure, and osteoclasts and osteoblasts are identified by their distinctive morphology. Histomorphometry software (OsteoMeasure, Osteometrix, Inc., Atlanta) is used to process digitizer input to determine cell counts and measure areas or perimeters.
Typical treatment regimens for testing utilize application of the compound to be tested over several days of repeated administration.
PSI and MG-132 were assayed in vivo according to the procedure described previously (see “In vivo Assay of Effects of Compounds on Murine Calvarial Bone Growth”, supra). As a control, simvastatin provided a 1.5 fold increase in the number of osteoblasts.
In one experiment, vehicle control, bFGF and varying doses of PSI were tested in the in vivo calvarial bone growth assay. The results are reported as a measurement of total bone area, % increase in area over vehicle control, and % increase in new bone width as shown below.

Q: For `CC[C@H](C)[C@H](NC(=O)[C@H]([C@@H](C)CC)N(C)C(C)=O)C(=O)N[C@H](C(=O)N[C@@H](CC(C)C)C(=O)[C@@]1(C)CO1)[C@@H](C)O` [Epoxomicin], which “hair follicle diameter and follicle elongation” value ([1]; 25 nM) is on record?
A: obvious increase in hair follicle diameter, and follicle elongation

Q: What about the “bone formed compared with control” value (calvaria; concentrations of 5-10 nM) of the same compound?
A: significantly more bone was formed than in the control

Q: What about the “New Bone Area” value (calvaria; dose 0.000625 μM) of the same compound?
A: 2.78 mm^2 × 10^−3

Q: What about the “New Bone Area” value (calvaria; dose 0.00125 μM) of the same compound?
A: 2.80 mm^2 × 10^−3

Q: And the “New Bone Area” value (calvaria; dose 0.0025 μM)?
A: 4.04 mm^2 × 10^−3

Q: And the “New Bone Area” value (calvaria; dose 0.005 μM)?
A: 6.54# mm^2 × 10^−3

Q: And the “New Bone Area” value (calvaria; dose 0.01 μM)?
A: 5.74# mm^2 × 10^−3

Q: And the “concentration up to which no inhibition appears” value (calpain)?
A: > 50 µM

Q: With `CC[C@H](C)[C@H](NC(=O)OCc1ccccc1)C(=O)N[C@@H](CCC(=O)OC(C)(C)C)C(=O)N[C@@H](C)C(=O)N[C@H](C=O)CC(C)C` [PSI, N-carbobenzoyl-Ile-Glu-(OtBu)-Ala-Leu-CHO] (Cbz-IE(OtBu)AL-aldehyde) as the compound, how does the “number of hair follicles versus control mice” value (hair follicles; 1 mg/kg/day subcutaneously three times a day for five days, day 7 dermal punch biopsy) read?
A: large increase in the number of hair follicles

Q: And the hair growth rate (hair follicles; 1 mg/kg/day subcutaneously, by day 18)?
A: hair growth rate greater than that of the mice in the control group

Q: What about the “mature hair follicles in the lower region of the dermis” value (hair follicles; 1 mg/kg/day subcutaneously, day 21 histology) of the same compound?
A: mature hair follicles in numbers much greater than in controls

Q: What about the “histological examination of bone growth” value (calvaria of normal mice; 5 mg/kg/day and 1 mg/kg/day of PSI) of the same compound?
A: confirmation of bone growth

Q: What about the Total Bone Area (calvaria of normal mice; PSI 0.1 mg/kg/day) of the same compound?
A: 0.74 ± 0.02 mm²

Q: And the “% Increase in Bone Area Compared with Control” value (“% Increase … with Control” for short) (calvaria of normal mice; PSI 0.1 mg/kg/day)?
A: 21.7 ± 3.5%

Q: And the Total Bone Area (calvaria of normal mice; PSI 1 mg/kg/day)?
A: 0.83 ± 0.02 mm²

Q: And the “% Increase in New Bone Width” value (calvaria of normal mice; PSI 1 mg/kg/day)?
A: 19.9 ± 2.0%

Q: And the “% Increase … with Control” value (calvaria of normal mice; PSI 1 mg/kg/day)?
A: 35.4 ± 3.4%

Q: And the Total Bone Area (calvaria of normal mice; PSI 5 mg/kg/day)?
A: 0.79 ± 0.03 mm²

Q: What about the “% Increase in New Bone Width” value (calvaria of normal mice; PSI 5 mg/kg/day) of the same compound?
A: 19.9 ± 4.4%

Q: What about the “% Increase … with Control” value (calvaria of normal mice; PSI 5 mg/kg/day) of the same compound?
A: 32.1 ± 5.6%

Q: What about the “hair follicle diameter and follicle elongation” value ([1]; 50 nM) of the same compound?
A: obvious increase in hair follicle diameter, and follicle elongation

Q: Which “increase in the number of osteoblasts” value (calvaria of normal mice; mouse, in vivo) does the source give for simvastatin here?
A: 1.5 fold
